Results from patent publication US20230293458A1, “MULTIBIOTIC AGENTS AND METHODS OF USING THE SAME” (Flagship Pioneering Innovations V, Inc., priority 2017, published 2023).

Tests used:
Assay type in all cases: in vitro ADME
[1] = Stability of multibiotic agents in Simulated Gastric Fluid (SGF); conditions: simulated gastric fluid pH 1.6 with pepsin, 37° C., 1 μM
Summary of the method: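 Compounds were incubated at 1 μM final at 37 °C in simulated gastric fluid containing NaCl, pH 1.6, with FaSSIF powder and 0.1 mg/mL pepsin. Aliquots were taken at T0 and at regular intervals and quenched with acetonitrile. Degradation rates were determined by LC/MS.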

[2] = Stability of multibiotic agents in Simulated Intestinal Fluid (SIF); conditions: simulated intestinal fluid pH 6.7 with pancreatin, 37° C., 1 μM
Summary of the method: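 Compounds at 1 μM final (from 1 mM DMSO stock) incubated at 37 °C with agitation in fresh SIF (FaSSIF plus pancreatin in pH 6.7 phosphate buffer). Aliquots taken at T0 and regular intervals, quenched with 1 volume acetonitrile. Degradation rate determined by LC/MS.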

[3] = Assay 4. Fecal Incubation Stability; conditions: fecal slurry in YCFA media, anaerobic, 1 or 10 μM
Protocol: Assay 4. Fecal Incubation Stability. This assay can be used to assess the stability of a multibiotic agent in a large intestine. All experiments performed in an anaerobic chamber containing 90% nitrogen, 5% hydrogen and 5% carbon dioxide. Fecal matter in a slurry (15% (w/v)) was added to 96 well plates containing YCFA media or other suitable media (1.6 mL). Compounds were added to each individual well to reach a final analyte concentration of 1 or 10 μM, and the material was mixed by pipetting. At predetermined timepoints a sample was removed, quenched with acetonitrile, and analyzed by LC/MS.

| Structure (SMILES) | Assay 2 (SGF) (% Remaining @ 4 hours) [1] | Assay 3 (SIF) (% @ Remaining 4 hours) [2] | Assay 4 (% Remaining at 24 h) [3] |
| --- | --- | --- | --- |
| CCCC(=O)Oc1cc(OC(=O)CCC)c2c(c1)O[C@H](c1cc(OC(=O)CCC)c(OC(=O)CCC)c(OC(=O)CCC)c1)[C@H](OC(=O)c1cc(OC(=O)CCC)c(OC(=O)CCC)c(OC(=O)CCC)c1)C2 [Example 15, [(2R,3R)-5,7-di(butanoyloxy)-2-[3,4,5-tri(butanoyloxy)phenyl]chroman-3-yl] 3,4,5-tri(butanoyloxy)benzoate] | C (>75% of the tested compound remaining) | C (>75% of the tested compound remaining) | C (>75% of the tested compound remaining) |
| CC(=O)Oc1cc(OC(C)=O)c2c(c1)O[C@H](c1cc(OC(C)=O)c(OC(C)=O)c(OC(C)=O)c1)[C@H](OC(=O)c1cc(OC(C)=O)c(OC(C)=O)c(OC(C)=O)c1)C2 [Example 16, [(2R,3R)-5,7-diacetoxy-2-(3,4,5-triacetoxyphenyl)chroman-3-yl] 3,4,5-triacetoxybenzoate] | C (>75% of the tested compound remaining) | A (<25% of the tested compound remaining) | A (<25% of the tested compound remaining) |
| CCCC(=O)O[C@@H]1[C@@H](OC(=O)CCC)[C@@H](Oc2ccc(N)cc2C(=O)O)OC[C@H]1OC(=O)CCC [Example 20, 5-amino-2-[(2R,3R,4S,5R)-3,4,5-tri(butanoyloxy)tetrahydropyran-2-yl]oxy-benzoic acid] | C (>75% of the tested compound remaining) | C (>75% of the tested compound remaining) | A (<25% of the tested compound remaining) |
| CCCC(=O)Oc1ccc2c(c1)oc(=O)c1cc(OC(=O)CCC)c(OC(=O)CCC)cc12 [Example 52, 8,9-di(butanoyloxy)-6-oxo-benzo[c]chromen-3-yl] butanoate] |  |  | A (<25% of the tested compound remaining) |
| O=C(CCc1c[nH]c2ccccc12)Oc1ccc(/C=C/c2cc(OC(=O)CCc3c[nH]c4ccccc34)cc(OC(=O)CCc3c[nH]c4ccccc34)c2)cc1 [Example 71, [4-[(E)-2-[3,5-bis[3-(1H-indol-3-yl)propanoyloxy]phenyl]vinyl]phenyl] 3-(1H-indol-3-yl)propanoate] | C (>75% of the tested compound remaining) | C (>75% of the tested compound remaining) | C (>75% of the tested compound remaining) |
| CCCC(=O)O[C@H](C)CC(=O)O[C@H]1CO[C@H]2[C@@H]1OC[C@H]2OC(=O)C[C@@H](C)OC(=O)CCC [Example 79, [(3S,3aR,6R,6aR)-6-[(3R)-3-butanoyloxybutanoyl]oxy-2,3,3a,5,6,6a-hexahydrofuro[3,2-b]furan-3-yl] (3R)-3-butanoyloxybutanoate] | C (>75% of the tested compound remaining) | B (25-75% of the tested compound remaining) | B (25-75% of the tested compound remaining) |
